Key:
[1] = biological target: T1, human V1aR (Homo sapiens, UniProt P37288); experiment: V1aR functional assay, agonist effect (intracellular Ca^2+ increase, fluorimetry, CHO cells); format: cell-based; settings: up to 50 μM, RT, % of control response (1 µM AVP), triplicate
T1 construct: host or cells: CHO
Description: (§1) Detailed information about the cells tested and other experimental conditions are described in Table 2. Briefly, cells were transfected with a recombinant expression vector capable of expressing each type of human OXT/AVP receptor. To evaluate the agonist effects on OXTR, V1aR, and V1bR, the intracellular Ca^2+ increase after treatment with OTP or CPT was measured by fluorimetry. […] For V2R receptors, cells were treated with peptides with or without the stimulant for 30 min. After that, cyclic AMP (cAMP) concentrations were measured by homogeneous time-resolved fluorescence (HTRF). The results were represented as the percent submaximal response achieved by the stimulant. All experiments were performed in triplicate. Data are presented as the mean ± standard error of the mean. The 50% effective concentration (EC50) and 50% inhibitory concentration (IC50) values were determined using a 4-parameter logistic fitting of a dose–response curve using SigmaPlot 10.0 (Systat Software, Palo Alto, CA, USA).

[2] = biological target: T2, human OXTR (Homo sapiens, UniProt P30559); experiment: OXTR functional assay, antagonist effect (30 nM OXT-induced intracellular Ca^2+, fluorimetry, ECV304 cells); format: cell-based; settings: 50 μM; ECV304; stimulant 30 nM OXT; RT; fluorimetry; triplicate
T2 construct: host or cells: ECV304
T2 sequence (P30559 1-389): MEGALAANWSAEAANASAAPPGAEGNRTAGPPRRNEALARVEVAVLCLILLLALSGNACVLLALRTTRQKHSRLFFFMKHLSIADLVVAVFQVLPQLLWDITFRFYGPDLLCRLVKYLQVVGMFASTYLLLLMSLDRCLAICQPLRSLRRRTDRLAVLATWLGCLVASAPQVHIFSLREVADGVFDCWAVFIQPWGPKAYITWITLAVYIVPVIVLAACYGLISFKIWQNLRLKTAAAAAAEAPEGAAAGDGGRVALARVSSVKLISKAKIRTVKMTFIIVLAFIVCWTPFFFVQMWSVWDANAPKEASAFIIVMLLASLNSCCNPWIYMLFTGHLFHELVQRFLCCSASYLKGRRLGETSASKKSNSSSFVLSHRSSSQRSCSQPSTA
Description: as §1

[3] = biological target: T2, human OXTR; experiment: OXTR functional assay, agonist effect (intracellular Ca^2+ increase, fluorimetry, transfected ECV304 cells); format: cell-based; settings: up to 50 μM, RT, % of control response (1 µM OXT), triplicate
Description: as §1

[4] = biological target: T1, human V1aR; experiment: V1aR functional assay, antagonist effect (10 nM AVP-induced intracellular Ca^2+, fluorimetry, CHO cells); format: cell-based; settings: all concentrations tested; CHO; stimulant 10 nM AVP; RT; fluorimetry; triplicate
Description: as §1

[5] = tested on: common cuttlefish (Sepia officinalis); settings: ref [22]; cited from earlier work
Source text: (§2) These genes produce active nonapeptides, which are named octopressin (OTP) and cephalotocin (CPT). […] OTP was also reported to evoke hyperactivity in chromatophore cells, ra ...

[6] = tested on: Octopus vulgaris; settings: same species (Octopus vulgaris); ref [20]; cited from earlier work
Source text: as §2

[7] = tested on: O. ocellatus; settings: ref [21]; cited from earlier work
Source text: as §2

[8] = tested on: oviduct, aorta, and rectum; settings: in vitro preparations of oviduct, ref [18]; cited from earlier work
Source text: as §2

[9] = biological target: T3, human V1bR (Homo sapiens, UniProt P47901); experiment: V1bR functional assay, agonist effect (intracellular Ca^2+ increase, fluorimetry, RBL cells); format: cell-based; settings: up to 50 μM; RBL; RT; fluorimetry; % of control response (0.1 µM AVP); triplicate
T3 construct: host or cells: RBL
T3 sequence (P47901 1-424): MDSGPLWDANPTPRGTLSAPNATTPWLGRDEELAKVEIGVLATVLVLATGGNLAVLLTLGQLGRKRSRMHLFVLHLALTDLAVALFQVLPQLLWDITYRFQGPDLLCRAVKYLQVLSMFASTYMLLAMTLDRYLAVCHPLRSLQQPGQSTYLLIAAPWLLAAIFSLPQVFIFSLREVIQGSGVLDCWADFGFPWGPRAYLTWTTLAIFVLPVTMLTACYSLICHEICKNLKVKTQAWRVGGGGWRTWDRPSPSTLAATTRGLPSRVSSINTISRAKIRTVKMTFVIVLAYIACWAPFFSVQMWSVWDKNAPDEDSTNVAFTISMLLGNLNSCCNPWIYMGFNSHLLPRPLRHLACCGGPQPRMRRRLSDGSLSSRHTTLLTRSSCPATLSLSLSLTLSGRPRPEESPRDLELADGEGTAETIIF
Description: as §1

[10] = biological target: T4, human V2R (Homo sapiens, UniProt P30518); experiment: V2R functional assay, agonist effect (cAMP accumulation, HTRF, CHO cells); format: cell-based; settings: 50 μM; CHO; 30 min RT; HTRF; % of control response (1 nM AVP); triplicate
T4 construct: host or cells: CHO
Description: as §1

[11] = biological target: T3, human V1bR; experiment: V1bR functional assay, antagonist effect (5 nM AVP-induced intracellular Ca^2+, fluorimetry, RBL cells); format: cell-based; settings: all concentrations tested, stimulant 5 nM AVP, RT, triplicate
Description: as §1

[12] = biological target: T4, human V2R; experiment: V2R functional assay, antagonist effect (0.03 nM AVP-induced cAMP, HTRF, CHO cells); format: cell-based; settings: all concentrations tested, stimulant 0.03 nM AVP, 30 min RT, triplicate
Description: as §1

T1 sequence (P37288 whole entry): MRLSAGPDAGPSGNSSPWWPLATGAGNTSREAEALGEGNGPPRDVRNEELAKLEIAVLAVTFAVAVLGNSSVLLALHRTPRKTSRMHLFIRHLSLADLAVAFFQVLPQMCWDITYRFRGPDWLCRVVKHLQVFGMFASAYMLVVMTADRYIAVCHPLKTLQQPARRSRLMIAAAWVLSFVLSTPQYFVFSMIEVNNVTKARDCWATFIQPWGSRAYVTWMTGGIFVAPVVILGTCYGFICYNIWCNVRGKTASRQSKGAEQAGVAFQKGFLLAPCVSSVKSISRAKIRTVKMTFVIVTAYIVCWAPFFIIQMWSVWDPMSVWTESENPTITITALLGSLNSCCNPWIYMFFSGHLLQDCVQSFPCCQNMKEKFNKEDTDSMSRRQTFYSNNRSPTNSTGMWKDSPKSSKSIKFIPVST

CYWTSCPIG-NH2 (disulfide bond) (disulfide) [OTP, octopressin, natural OXT/AVP analog from Octopus vulgaris, synthesized by solid-phase peptide synthesis]
V1aR-mediated intracellular Ca^2+ increase (agonist effect) [1]: did not seem to induce | inhibition rate of OXTR activation [2]: approximately 30% | OXTR-mediated intracellular Ca^2+ increase (agonist effect) [3]: did not seem to induce | antagonist effect against V1aR activation [4]: could not inhibit | effect on long-term memory [5]: affect long-term memory | behavioral effect [6]: hyperactivity in chromatophore cells, rapid respiration, and jetting water from the siphon | hemolymph osmolality [7]: decreases hemolymph osmolality | effect on peripheral tissues [8]: induced contractions | V1bR-mediated intracellular Ca^2+ increase (agonist effect) [9]: did not seem to induce | V2R-mediated cAMP accumulation (agonist effect) [10]: < 30% | antagonist effect against V1bR activation [11]: could not inhibit | antagonist effect against V2R activation [12]: could not inhibit
